From the Deep4Chem optical property database
“And” between values parts separate entries of the source, which are not always exact repeats. Equal entries are not always repeated. One block for each compound: values may come before it.

Experiment: solvent given as SMILES

SMILES: CN(C)c1ccc2[c](c1)[Ge]([CH3])([CH3])[C]1=CC(=[N+](C)C)C=CC1=C2
- absorption maximum (in O): 621 nm

SMILES: CC(C)[Si](C#Cc1c2ccccc2c(C#C[Si](C(C)C)(C(C)C)C(C)C)c2nc3ccccc3nc12)(C(C)C)C(C)C
- absorption maximum (in CCCCCC): 570 nm
- absorption maximum (in ClCCl): 570 nm

SMILES: CC(C)(C)c1ccc2c(c1)[nH]c1c3[nH]c4cc(C(C)(C)C)ccc4c3c3nsnc3c21
- absorption maximum (in CN(C)C=O): 412 nm
- absorption maximum (in Cc1ccccc1): 406 nm
- absorption maximum (in ClCCl): 411 nm

SMILES: CCC(C)(C)c1ccc2c(c1)C(CCOC)(CCOC)c1cc(-c3ccc4c(c3)C(CCOC)(CCOC)c3cc(C(C)(C)CC)ccc3-4)ccc1-2
- absorption maximum (in C1CCCCC1): 331 nm

SMILES: CCN(CC)c1ccc2cc(-c3ccc(-c4ccc5ccc6c(-c7ccc(-c8cc9ccc(N(CC)CC)cc9oc8=O)cc7)ccc7ccc4c5c76)cc3)c(=O)oc2c1
- absorption maximum (in ClC(Cl)Cl): 412 nm

SMILES: C#CCn1c2ccccc2c2cc(/C=C/c3cc(C)c4n3[B-](F)(F)[N+]3=C(C)C=C(C)C3=C4c3ccc(I)cc3)ccc21
- absorption maximum (in CC#N): 579 nm
- absorption maximum (in CS(C)=O): 589 nm
- absorption maximum (in ClC(Cl)Cl): 588 nm

SMILES: CC(C)CCCC(C)CCN1C(=O)c2ccc3c(-c4ccccc4)c4c5ccc6c7c(ccc(c(-c8ccccc8)c4c4ccc(c2c34)C1=O)c75)C(=O)N(CCC(C)CCCC(C)C)C6=O (stereo not drawn)
- absorption maximum (in ClCCl): 630 nm

SMILES: O=[N+]([O-])c1cccc(O)c1
- absorption maximum (in CO): 329 nm
- absorption maximum (in O): 328 nm

SMILES: CN(C)c1ccc(C2=C(c3ccccc3)c3sc4ccccc4[n+]3[B-](F)(F)O2)cc1
- absorption maximum (in C1CCOC1): 446 nm

SMILES: CC1(C)C(/C=C/C2=C(Oc3ccc(CCN=C=S)cc3)C(=C/C=C3/N(CCCS(=O)(=O)[O-])c4ccccc4C3(C)C)/CCC2)=[N+](CCCS(=O)(=O)[O-])c2ccccc21
- absorption maximum (in CO): 765 nm

SMILES: COc1nnc(Cl)nn1
- absorption maximum (in ClCCl): 520 nm
- absorption maximum (in OCC(F)(F)F): 518 nm

SMILES: CC1=[N+]2C(=C(c3ccc(N4CCOCC4)cc3)c3ccc(C)n3[B-]2(F)F)C=C1
- absorption maximum (in C1CCCCC1): 509 nm
- absorption maximum (in C1CCOC1): 507 nm
- absorption maximum (in CC#N): 504 nm and 505 nm
- absorption maximum (in CC(=O)C(C)(C)C): 506 nm
- absorption maximum (in CC(C)=O): 505 nm
- absorption maximum (in CCCCCC): 508 nm
- absorption maximum (in CCOC(C)=O): 506 nm
- absorption maximum (in CO): 505 nm
- absorption maximum (in Cc1ccccc1): 511 nm
- absorption maximum (in ClC(Cl)Cl): 511 nm

SMILES: Clc1nnc(Oc2ccc(N(c3ccccc3)c3ccccc3)cc2)nn1
- absorption maximum (in ClCCl): 525 nm

SMILES: CCN(CC)c1ccc([N+]2=Cc3ccc4c5c(ccc4c3O[B-]2(c2c(F)c(F)c(F)c(F)c2F)c2c(F)c(F)c(F)c(F)c2F)C=[N+](c2ccc(N(CC)CC)cc2)[B-](c2c(F)c(F)c(F)c(F)c2F)(c2c(F)c(F)c(F)c(F)c2F)O5)cc1
- absorption maximum (in C1CCOC1): 559 nm
- absorption maximum (in CC#N): 555 nm
- absorption maximum (in CC(C)=O): 555 nm
- absorption maximum (in Cc1ccccc1): 584 nm
- absorption maximum (in ClCCl): 589 nm

SMILES: CC1(C)c2ccccc2N(c2c(F)cc(-c3nnc(-c4ccccc4)o3)cc2F)c2ccccc21
- absorption maximum (in Cc1ccccc1): 376 nm
- absorption maximum (in O=P(c1ccccc1)(c1ccccc1)c1ccccc1Oc1ccccc1P(=O)(c1ccccc1)c1ccccc1): 370 nm

SMILES: O=Cc1ccc(-c2ccc(C3=CCCCC3)s2)s1
- absorption maximum (in C1CCOC1): 385 nm
- absorption maximum (in CC#N): 358 nm
- absorption maximum (in CCCCCC): 381 nm
- absorption maximum (in CCO): 389 nm
- absorption maximum (in OCCOCCO): 389 nm
- absorption maximum (in c1ccncc1): 392 nm

SMILES: CCCCN1C(=O)c2cccc3c(OC)ccc(c23)C1=O
- absorption maximum (in CC#N): 376 nm
- absorption maximum (in CS(C)=O): 484 nm
- absorption maximum (in Cc1ccccc1): 362 nm

SMILES: COCCC1=Cc2nc1ccc1[nH]c(cc1CCOC)c1nc(c(NC(C)=O)cc3[nH]c2cc3CCOC)C(CCOC)=C1
- absorption maximum (in Cc1ccccc1): 670 nm

SMILES: COc1ccc(C2=[N+]3C(=Nc4c5c6cc(OC)c(OC)c(OC)c6c6cc(C(C)(C)C)ccc6c5c(-c5ccc(OC)cc5)n4[B-]3(F)F)c3c2c2ccc(C(C)(C)C)cc2c2c(OC)c(OC)c(OC)cc32)cc1
- absorption maximum (in Cc1ccccc1): 745 nm

SMILES: O=C1Cc2cc3c(cc2CCCc2ccc(cc2)CCC3)CC(=O)Cc2ccc(c3nsnc23)C1
- absorption maximum (in C1CCCCC1): 401 nm
- absorption maximum (in CC#N): 404 nm
- absorption maximum (in ClC(Cl)Cl): 404 nm

SMILES: Cc1ccc(-c2ccc(/C=C/c3cccs3)cn2)nc1
- absorption maximum (in CC#N): 348 nm

SMILES: CCOC(=O)C1=CN(Cc2ccccc2)C=C(C(=O)OCC)C1
- absorption maximum (in C1CCOC1): 367 nm
- absorption maximum (in CO): 371 nm

SMILES: Cc1ccc(C2=C3C=CC(Cl)=[N+]3[B-](F)(F)n3c(Cl)ccc32)cc1
- absorption maximum (in C1CCCCC1): 514 nm
- absorption maximum (in C1CCOC1): 511 nm
- absorption maximum (in CC#N): 508 nm
- absorption maximum (in CCOC(C)=O): 509 nm
- absorption maximum (in CO): 508 nm
- absorption maximum (in Cc1ccccc1): 516 nm
- absorption maximum (in ClC(Cl)Cl): 515 nm

SMILES: N#C/C(=C\c1ccc(Cl)cc1)c1nc(-c2ccccc2)cs1
- absorption maximum (in CC#N): 364 nm

SMILES: CC(C)(C)c1ccc2c(c1)c1cc(C(C)(C)C)ccc1n2-c1ccc2c(c1)C(=O)c1ccc(-n3c4ccc(C(C)(C)C)cc4c4cc(C(C)(C)C)ccc43)cc1C2=O
- absorption maximum (in Cc1ccccc1): 463 nm

SMILES: c1ccc2c(c1)-c1ccccc1C21c2ccccc2-c2cnccc21
- absorption maximum (in CC1CCCO1): 305 nm

SMILES: Cc1sc(Cl)cc1-c1nc(-c2ccccc2)[nH]c1-c1cc(Cl)sc1C
- absorption maximum (in CC#N): 298 nm

SMILES: CN(C)c1ccc(/C=C/c2cc[n+](C)cc2)cc1
- absorption maximum (in C1CCOC1): 483 nm
- absorption maximum (in CC1COC(=O)O1): 473 nm
- absorption maximum (in CC#N): 470 nm
- absorption maximum (in CC(C)=O): 474 nm and 468 nm
- absorption maximum (in CC(C)O): 477 nm
- absorption maximum (in CCO): 480 nm
- absorption maximum (in CCOC(C)=O): 464 nm
- absorption maximum (in CO): 476 nm and 474 nm
- absorption maximum (in CS(C)=O): 471 nm
- absorption maximum (in ClC(Cl)Cl): 500 nm
- absorption maximum (in ClCCl): 522 nm
- absorption maximum (in O): 448 nm
- absorption maximum (in c1ccncc1): 494 nm

SMILES: CCCC1=Cc2nc1ccc1[nH]c(c3nc(ccc4[nH]c2cc4CCC)C(CCC)=C3)c(CN(C)C)c1CCC
- absorption maximum (in Cc1ccccc1): 643 nm

SMILES: COC(=O)C1(C(=O)OC)Cc2c(C#Cc3ccccc3)c(-c3ccccc3)c3c(-c4ccccc4)c(-c4ccccc4)c(-c4ccccc4)c(-c4ccccc4)c3c2C1
- absorption maximum (in C1CCOC1): 339.52 nm

SMILES: O=[N+]([O-])c1ccc([N+]2=Cc3ccc4c5c(ccc4c3O[B-]2(c2c(F)c(F)c(F)c(F)c2F)c2c(F)c(F)c(F)c(F)c2F)C=[N+](c2ccc([N+](=O)[O-])cc2)[B-](c2c(F)c(F)c(F)c(F)c2F)(c2c(F)c(F)c(F)c(F)c2F)O5)cc1
- absorption maximum (in C1CCOC1): 525 nm
- absorption maximum (in CC#N): 513 nm
- absorption maximum (in CC(C)=O): 515 nm
- absorption maximum (in Cc1ccccc1): 549 nm
- absorption maximum (in ClCCl): 553 nm

SMILES: CC[N+]1(CC)CN2C(=N1)C(C(=O)O)=Cc1ccccc12
- absorption maximum (in CN(C)C=O): 361 nm
- absorption maximum (in O): 373 nm

SMILES: [NH3+]c1ccc2ccc(O)cc2c1
- absorption maximum (in O): 328 nm

SMILES: CN(C)c1ccc2c(-c3ccc(N)cc3C(=O)[O-])c3ccc(=[N+](C)C)cc-3oc2c1
- absorption maximum (in CCO): 533 nm
- absorption maximum (in O): 544 nm

SMILES: CN1/C(=C/C=C(/C=C/c2sc3ccccc3[n+]2C)c2ccc(C(F)(F)F)cc2)Sc2ccccc21
- absorption maximum (in CCO): 646 nm
- absorption maximum (in CO): 643 nm
- absorption maximum (in CS(C)=O): 652 nm
- absorption maximum (in O): 639 nm

SMILES: Cc1cc(C)c2nc3c(=O)[nH]c(=O)[nH]c3nc2c1
- absorption maximum (in CC#N): 350 nm

SMILES: CCN(CC)c1ccc(/C=N/C2CCCCC2/N=C/c2ccc(N(CC)CC)cc2O)c(O)c1 (stereo not drawn)
- absorption maximum (in CC#N): 376 nm
- absorption maximum (in CN(C)C=O): 410 nm
- absorption maximum (in ClCCl): 403 nm

Continued, values first:

- absorption maximum (in ClCCl): 334 nm
SMILES: C(=C\c1cccc2ccccc12)/c1ccc(Oc2ccc3ccccc3c2-c2c(Oc3ccc(/C=C/c4cccc5ccccc45)cc3)ccc3ccccc23)cc1

- absorption maximum (in C1CCCCC1): 295 nm
SMILES: C=Cc1cccc(OC)c1

- absorption maximum (in CCO): 457 nm
SMILES: CN1c2cc3nc4cc(F)c(F)cc4nc3cc2N(C)C1(C)C

- absorption maximum (in C1CCOC1): 513 nm
- absorption maximum (in CN1CCCC1=O): 487 nm
- absorption maximum (in CN(C)C=O): 495 nm
SMILES: O=C1c2ccc3c4c(Oc5ccccc5)cc5c6c(ccc(c7c(Oc8ccccc8)cc(c2c37)C(=O)N1c1ccc(O)cc1)c64)C(=O)N(c1ccc(O)cc1)C5=O

- absorption maximum (in CC#N): 252 nm
- absorption maximum (in CCCCCC): 254 nm
SMILES: c1ccc(-n2cccc2)cc1

- absorption maximum (in ClC(Cl)Cl): 393 nm
SMILES: CCCCCCn1c2ccccc2c2cc3c4cc5c6ccccc6n(CCCCCC)c5cc4c4cc5c(C)cc(=O)oc5cc4c3cc21

- absorption maximum (in CCCCCC): 499 nm
- absorption maximum (in CO): 494 nm
- absorption maximum (in ClCCl): 498 nm
SMILES: CC1=C2C=CC(C)=[N+]2[B-](F)(F)n2cccc21

- absorption maximum (in CC#N): 401 nm
- absorption maximum (in CO): 402 nm
SMILES: Cc1ccc2sc3cc(CCC(=O)O)ccc3c(=O)c2c1

- absorption maximum (in ClCCl): 300 nm
SMILES: Cc1cc2ccccc2c2c1c1ccccc1n2C

- absorption maximum (in CCOC(C)=O): 292 nm
SMILES: CCn1c(-c2ccc(-c3cccc4ccccc34)cc2)c(-c2ccc3ccccc3c2)c(-c2ccc3ccccc3c2)c1-c1ccc(-c2cccc3ccccc23)cc1

- absorption maximum (in C1CCOC1): 344 nm
SMILES: c1ccc2c(c1)c1ccccc1n2-c1ccc2c(c1)c1ccccc1n2-c1cc2c3ccccc3n3c4ccccc4c(c1)c23

- absorption maximum (in CC#N): 348 nm
- absorption maximum (in CCCCCCCCCCCCCCCC): 337 nm
- absorption maximum (in CO): 356 nm
- absorption maximum (in ClC(Cl)Cl): 344 nm
- absorption maximum (in c1ccccc1): 343 nm
SMILES: CC(C)(C)C1Nc2ccccc2C(=O)N1c1ccccc1 (stereo not drawn)

- absorption maximum (in O): 458 nm
SMILES: N#Cc1c(N2CCCCC2)cc(-c2cccs2)c2c1-c1cccc3cccc-2c13

- absorption maximum (in CC#N): 305 nm
- absorption maximum (in CCCCCC): 375 nm
- absorption maximum (in CO): 356 nm
- absorption maximum (in ClC(Cl)Cl): 394 nm
SMILES: c1ccc2cc3cc(-c4cc(-c5nccs5)nc(-c5nccs5)c4)ccc3cc2c1

- absorption maximum (in ClCCl): 507 nm
SMILES: c1ccc(C2=C(c3ccccc3)c3cccc4c3c(cc3nc5cc(-c6ccccc6)c(-c6ccccc6)cc5nc34)O2)cc1

- absorption maximum (in ClC(Cl)Cl): 620 nm
SMILES: CC1=C(Br)C(/C=C/c2ccncc2)=[N+]2C1=C(c1ccccc1)c1c(C)c(Br)c(/C=C/c3ccncc3)n1[B-]2(F)F

- absorption maximum (in ClC(Cl)Cl): 611 nm
SMILES: CC1(C)CC[N+]2=c3c(cc4c(c31)Oc1cc3c(cc1C=4c1ccccc1C(=O)O)C(c1ccccc1C(=O)O)=c1cc4c5c(c1O3)C(C)(C)CC[N+]=5CCC4)CCC2

- absorption maximum (in ClCCl): 404 nm
SMILES: N#CC(C#N)=Cc1ccc2c(c1)c1ccccc1n2-c1cccc2ccccc12
